AC50 data for 15 compounds are collected here from ChEMBL document CHEMBL5291721, “A preclinical secondary pharmacology resource illuminates target-adverse drug reaction associations of marketed drugs” (Nat Commun, 2023).

A value given as a limit tells only on which side of the number the result lay.

The target in experiment [1] is Growth hormone secretagogue receptor type 1 (Homo sapiens, UniProt Q92847).
Experiment [2] deals with Beta-2 adrenergic receptor (Homo sapiens, UniProt P07550).
For experiment [3], the target named is T1, 5-hydroxytryptamine receptor 1A (Homo sapiens, UniProt P08908).
T1 sequence (P08908 whole entry): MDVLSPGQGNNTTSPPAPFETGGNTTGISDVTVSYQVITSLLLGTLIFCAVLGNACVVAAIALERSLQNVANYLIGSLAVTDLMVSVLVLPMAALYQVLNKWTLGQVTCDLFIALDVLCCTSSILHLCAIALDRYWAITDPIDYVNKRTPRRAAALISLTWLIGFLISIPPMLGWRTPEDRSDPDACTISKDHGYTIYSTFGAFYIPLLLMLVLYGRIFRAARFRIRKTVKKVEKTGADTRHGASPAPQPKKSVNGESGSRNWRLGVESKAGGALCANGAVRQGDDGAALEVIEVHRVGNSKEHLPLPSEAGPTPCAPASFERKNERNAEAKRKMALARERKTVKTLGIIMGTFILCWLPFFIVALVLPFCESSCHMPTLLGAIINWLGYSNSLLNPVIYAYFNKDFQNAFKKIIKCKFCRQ
It is filed as functional, cell-based.

In the next experiment the target is Melanocortin receptor 3 (Homo sapiens, UniProt P41968).
Melanocortin receptor 3, sequence (P41968 whole entry): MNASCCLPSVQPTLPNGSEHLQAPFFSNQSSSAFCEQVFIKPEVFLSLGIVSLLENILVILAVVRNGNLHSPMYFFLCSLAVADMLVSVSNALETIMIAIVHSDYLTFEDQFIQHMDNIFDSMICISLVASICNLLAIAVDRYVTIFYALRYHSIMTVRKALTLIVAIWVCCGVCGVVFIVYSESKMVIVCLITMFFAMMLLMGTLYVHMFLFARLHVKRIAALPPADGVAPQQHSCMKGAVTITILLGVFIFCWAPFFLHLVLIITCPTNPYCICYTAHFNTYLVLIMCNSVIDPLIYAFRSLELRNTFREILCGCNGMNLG
A further experiment has as its target Vasopressin V2 receptor (Homo sapiens, UniProt P30518).
A further experiment has as its target T2, Thromboxane A2 receptor (Homo sapiens, UniProt P21731).
T2 sequence (P21731 whole entry): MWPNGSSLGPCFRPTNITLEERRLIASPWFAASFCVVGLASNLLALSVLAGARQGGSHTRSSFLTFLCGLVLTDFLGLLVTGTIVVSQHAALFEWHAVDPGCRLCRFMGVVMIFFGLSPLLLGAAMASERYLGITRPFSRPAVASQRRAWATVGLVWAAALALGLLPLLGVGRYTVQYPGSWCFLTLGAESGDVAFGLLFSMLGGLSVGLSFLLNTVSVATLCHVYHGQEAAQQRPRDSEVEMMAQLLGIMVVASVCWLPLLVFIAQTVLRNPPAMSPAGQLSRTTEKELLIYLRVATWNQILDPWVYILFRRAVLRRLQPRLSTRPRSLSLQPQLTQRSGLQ

The target of experiment [4] is T3, Alpha-2B adrenergic receptor (Homo sapiens, UniProt P18089).
T3 sequence (P18089 whole entry): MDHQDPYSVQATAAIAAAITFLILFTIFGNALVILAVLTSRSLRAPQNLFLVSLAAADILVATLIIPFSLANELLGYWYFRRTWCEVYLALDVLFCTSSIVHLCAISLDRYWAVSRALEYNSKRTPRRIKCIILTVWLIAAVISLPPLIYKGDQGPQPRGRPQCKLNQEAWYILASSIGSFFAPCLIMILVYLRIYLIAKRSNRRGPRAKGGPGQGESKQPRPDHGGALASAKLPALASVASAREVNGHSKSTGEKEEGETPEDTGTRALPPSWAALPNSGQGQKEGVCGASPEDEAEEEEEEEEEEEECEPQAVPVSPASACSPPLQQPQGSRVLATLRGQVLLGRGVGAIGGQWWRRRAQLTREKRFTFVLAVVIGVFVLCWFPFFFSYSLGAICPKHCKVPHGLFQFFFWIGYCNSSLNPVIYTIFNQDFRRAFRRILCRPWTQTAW

The next experiment concerns the target T4, Adenosine receptor A3 (Homo sapiens, UniProt P0DMS8).
T4 sequence (P0DMS8 whole entry): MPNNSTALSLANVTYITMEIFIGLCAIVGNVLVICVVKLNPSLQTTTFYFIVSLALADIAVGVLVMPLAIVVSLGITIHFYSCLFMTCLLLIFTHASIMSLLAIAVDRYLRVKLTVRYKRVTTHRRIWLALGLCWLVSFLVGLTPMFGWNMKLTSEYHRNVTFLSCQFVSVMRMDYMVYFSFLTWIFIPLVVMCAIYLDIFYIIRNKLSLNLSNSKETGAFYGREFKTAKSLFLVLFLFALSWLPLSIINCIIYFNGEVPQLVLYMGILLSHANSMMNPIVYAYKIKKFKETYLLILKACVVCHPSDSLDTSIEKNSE

Experiment [5] deals with 5-hydroxytryptamine receptor 2A (Homo sapiens, UniProt P28223). It is filed as functional, cell-based.
5-hydroxytryptamine receptor 2A, sequence (P28223 whole entry): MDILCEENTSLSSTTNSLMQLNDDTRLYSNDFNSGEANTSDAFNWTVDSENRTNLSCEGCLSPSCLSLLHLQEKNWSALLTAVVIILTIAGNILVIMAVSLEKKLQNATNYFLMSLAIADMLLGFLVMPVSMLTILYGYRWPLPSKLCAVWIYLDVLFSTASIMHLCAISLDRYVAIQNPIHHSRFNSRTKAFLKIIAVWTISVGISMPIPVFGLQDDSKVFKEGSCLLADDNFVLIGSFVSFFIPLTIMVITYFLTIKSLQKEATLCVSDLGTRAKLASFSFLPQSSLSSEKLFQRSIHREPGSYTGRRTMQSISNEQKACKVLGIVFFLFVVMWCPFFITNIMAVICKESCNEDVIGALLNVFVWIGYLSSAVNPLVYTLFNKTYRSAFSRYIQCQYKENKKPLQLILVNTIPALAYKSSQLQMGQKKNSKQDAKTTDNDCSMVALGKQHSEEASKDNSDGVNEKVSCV
A further experiment deals with T5, Progesterone receptor (Homo sapiens, UniProt P06401).
T5 sequence (P06401 whole entry): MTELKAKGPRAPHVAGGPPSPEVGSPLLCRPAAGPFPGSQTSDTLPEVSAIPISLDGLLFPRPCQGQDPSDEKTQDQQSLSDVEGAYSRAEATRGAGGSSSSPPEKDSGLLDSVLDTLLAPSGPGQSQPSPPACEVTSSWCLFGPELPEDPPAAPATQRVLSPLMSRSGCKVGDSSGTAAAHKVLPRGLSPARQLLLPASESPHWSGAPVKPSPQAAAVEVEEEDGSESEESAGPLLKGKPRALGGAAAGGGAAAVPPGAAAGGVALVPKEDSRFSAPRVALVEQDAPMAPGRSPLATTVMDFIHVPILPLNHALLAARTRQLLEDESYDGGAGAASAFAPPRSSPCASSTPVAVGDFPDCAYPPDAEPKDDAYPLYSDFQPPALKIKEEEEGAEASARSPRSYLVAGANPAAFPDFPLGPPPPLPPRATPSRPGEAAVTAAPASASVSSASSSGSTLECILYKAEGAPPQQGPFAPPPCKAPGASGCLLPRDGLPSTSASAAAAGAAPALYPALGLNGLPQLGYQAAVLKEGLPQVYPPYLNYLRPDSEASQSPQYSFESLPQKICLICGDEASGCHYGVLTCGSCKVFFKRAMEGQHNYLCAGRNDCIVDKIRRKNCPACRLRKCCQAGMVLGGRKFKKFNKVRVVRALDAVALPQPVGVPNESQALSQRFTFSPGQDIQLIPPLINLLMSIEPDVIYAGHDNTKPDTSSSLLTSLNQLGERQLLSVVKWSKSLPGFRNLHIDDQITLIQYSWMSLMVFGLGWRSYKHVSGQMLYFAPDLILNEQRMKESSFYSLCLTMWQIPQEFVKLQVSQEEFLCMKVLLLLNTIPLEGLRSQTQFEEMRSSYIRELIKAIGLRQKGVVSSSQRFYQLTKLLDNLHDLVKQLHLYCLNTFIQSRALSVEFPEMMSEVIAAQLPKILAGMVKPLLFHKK
In kind it is functional.
Note: assay procedure not described here.

Beta-2 adrenergic receptor, sequence (P07550 whole entry): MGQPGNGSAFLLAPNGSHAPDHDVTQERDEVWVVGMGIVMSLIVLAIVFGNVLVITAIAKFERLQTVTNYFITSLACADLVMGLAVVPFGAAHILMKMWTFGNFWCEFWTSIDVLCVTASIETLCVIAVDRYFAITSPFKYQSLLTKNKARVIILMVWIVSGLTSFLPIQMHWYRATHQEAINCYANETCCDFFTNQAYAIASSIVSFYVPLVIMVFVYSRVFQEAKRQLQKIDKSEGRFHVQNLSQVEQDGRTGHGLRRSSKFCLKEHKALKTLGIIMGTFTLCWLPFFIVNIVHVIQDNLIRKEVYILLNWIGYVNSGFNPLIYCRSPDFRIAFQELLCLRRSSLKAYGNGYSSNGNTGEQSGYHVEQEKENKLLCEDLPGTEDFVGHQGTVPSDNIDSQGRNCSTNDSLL
Growth hormone secretagogue receptor type 1, sequence (Q92847 whole entry): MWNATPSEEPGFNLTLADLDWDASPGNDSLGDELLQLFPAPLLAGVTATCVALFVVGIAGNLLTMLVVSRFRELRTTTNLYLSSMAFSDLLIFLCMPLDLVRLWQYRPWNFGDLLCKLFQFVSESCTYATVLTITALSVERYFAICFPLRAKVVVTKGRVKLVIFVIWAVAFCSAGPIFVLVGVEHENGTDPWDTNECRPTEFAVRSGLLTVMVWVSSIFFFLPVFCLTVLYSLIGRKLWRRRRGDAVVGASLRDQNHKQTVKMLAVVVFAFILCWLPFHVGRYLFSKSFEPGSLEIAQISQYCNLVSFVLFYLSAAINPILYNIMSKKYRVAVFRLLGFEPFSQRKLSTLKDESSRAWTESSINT
Vasopressin V2 receptor, sequence (P30518 whole entry): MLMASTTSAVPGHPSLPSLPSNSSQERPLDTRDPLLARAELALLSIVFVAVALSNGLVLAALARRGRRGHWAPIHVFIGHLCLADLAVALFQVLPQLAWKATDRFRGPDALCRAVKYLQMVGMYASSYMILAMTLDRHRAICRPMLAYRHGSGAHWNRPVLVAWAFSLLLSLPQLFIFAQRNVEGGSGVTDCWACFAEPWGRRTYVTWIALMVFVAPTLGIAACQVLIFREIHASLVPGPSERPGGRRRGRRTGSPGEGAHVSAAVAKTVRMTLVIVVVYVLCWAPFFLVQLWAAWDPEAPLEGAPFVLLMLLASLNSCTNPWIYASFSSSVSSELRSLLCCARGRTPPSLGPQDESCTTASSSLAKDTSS

In general, AC50 refers to the concentration giving half of the maximal activity seen. `O=C(O)CCCc1ccccc1` [PHENYLBUTANOIC ACID]: the AC50 in experiment [1] is more than 10 µM; in experiment [2] it was more than 10 µM; in [3], more than 10 µM; at Melanocortin receptor 3, more than 10 µM; on Vasopressin V2 receptor, more than 30 µM; at Thromboxane A2 receptor it was more than 10 µM. The AC50 in experiment [4] was more than 30 µM; at Adenosine receptor A3, more than 10 µM; in [5], more than 30 µM.

On to `Cc1c(C(=O)Nc2ccc(N3C[C@@H](C)O[C@@H](C)C3)nc2)cccc1-c1ccc(OC(F)(F)F)cc1` [SONIDEGIB], for which the AC50 in experiment [1] is more than 30 µM; in [2], more than 10 µM; at Melanocortin receptor 3, more than 30 µM; on Vasopressin V2 receptor, more than 30 µM; at Thromboxane A2 receptor it was more than 30 µM; in [4] it was more than 10 µM. For the same compound, the half-maximal activity concentration (AC50) at Adenosine receptor A3 is more than 30 µM.

In the case of `CN1CC(=O)N2[C@H](c3ccc4c(c3)OCO4)c3[nH]c4ccccc4c3C[C@@H]2C1=O`, the AC50 was more than 30 µM in experiment [1]; more than 10 µM in experiment [2]; more than 10 µM in [3]; more than 30 µM on Melanocortin receptor 3; more than 30 µM at Vasopressin V2 receptor; more than 30 µM at Thromboxane A2 receptor. The figures for the AC50 (in experiment [4]; on Adenosine receptor A3; in experiment [5]) were more than 10 µM, more than 30 µM and more than 30 µM, respectively.

As for `CC/C=C\C/C=C\C/C=C\CCCCCCCC(=O)O` [LINOLENIC ACID], the AC50 (in [1]; at Melanocortin receptor 3; on Vasopressin V2 receptor; on Thromboxane A2 receptor; in experiment [4]; at Adenosine receptor A3) was more than 30 µM each time. This compound returned an AC50 in [5] of more than 30 µM.

Regarding `CN1CCc2cccc3c2[C@H]1Cc1ccc(O)c(O)c1-3` [APOMORPHINE], the AC50 in experiment [1] was more than 30 µM; in experiment [2] it was more than 10 µM; on Melanocortin receptor 3, more than 30 µM; at Vasopressin V2 receptor, more than 30 µM; at Thromboxane A2 receptor, more than 30 µM; on Adenosine receptor A3 it was 0.67 µM. The compound also returned an AC50 in [5] of 1.79 µM.

As to `CN[C@@H](C)[C@H](O)c1ccccc1` [EPHEDRINE], the AC50 in [1] is more than 30 µM; in experiment [2], more than 10 µM; in experiment [3], more than 10 µM; at Melanocortin receptor 3, more than 30 µM; on Vasopressin V2 receptor, more than 30 µM; on Thromboxane A2 receptor, more than 30 µM. For the same compound, the figures for the AC50 (in [4]; on Adenosine receptor A3) were more than 10 µM and more than 30 µM, respectively.

Consider `[H]/N=C(/N)c1ccc(NCc2nc3cc(C(=O)N(CCC(=O)O)c4ccccn4)ccc3n2C)cc1` [DABIGATRAN], for which the AC50 (in [1]; on Melanocortin receptor 3; on Vasopressin V2 receptor; at Progesterone receptor; in experiment [4]; on Adenosine receptor A3) was more than 30 µM each time.

For the compound `CN(C)C(=O)OC1N=C(c2ccccc2)c2cc(Cl)ccc2N(C)C1=O` (centres undefined) [CAMAZEPAM], the AC50 was more than 30 µM in experiment [1]; more than 10 µM in experiment [2]; more than 10 µM in experiment [3]; more than 30 µM at Melanocortin receptor 3; more than 30 µM at Vasopressin V2 receptor; more than 30 µM on Thromboxane A2 receptor. Also, the AC50 was more than 10 µM in [4], more than 30 µM on Adenosine receptor A3 and more than 30 µM in experiment [5].

Turning to `CC(=O)O[C@@]12CO[C@@H]1C[C@H](O)[C@@]1(C)C(=O)[C@H](O)C3=C(C)[C@@H](OC(=O)[C@H](O)[C@@H](NC(=O)OC(C)(C)C)c4ccccc4)C[C@@](O)([C@@H](OC(=O)c4ccccc4)[C@H]21)C3(C)C` [DOCETAXEL ANHYDROUS], the AC50 (in experiment [1]; in experiment [2]; in experiment [3]; on Melanocortin receptor 3; on Vasopressin V2 receptor; at Thromboxane A2 receptor) was more than 30 µM in each case. Also, the AC50 on Progesterone receptor and on Adenosine receptor A3 was more than 30 µM each time.

For `Cc1cc(-c2ccccc2)nnc1NCCN1CCOCC1` [MINAPRINE], the concentration at half-maximal activity (AC50) was more than 30 µM in [1]; more than 10 µM in experiment [2]; more than 10 µM in experiment [3]; more than 30 µM on Melanocortin receptor 3; more than 30 µM on Vasopressin V2 receptor; more than 30 µM at Thromboxane A2 receptor. Also, the AC50 is more than 10 µM in experiment [4], more than 30 µM on Adenosine receptor A3 and more than 30 µM in experiment [5].

For the compound `Cc1c(O)c(=O)ccn1C` [DEFERIPRONE], the AC50 (in [1]; in experiment [2]; in experiment [3]; on Melanocortin receptor 3; on Vasopressin V2 receptor; on Thromboxane A2 receptor) was more than 30 µM in each case. Further, the AC50 on Progesterone receptor and on Adenosine receptor A3 was more than 30 µM throughout.

Take `COc1ccc2cccc(CCNC(C)=O)c2c1` [AGOMELATINE]: the AC50 in experiment [1] was more than 30 µM; in experiment [2] it was more than 10 µM; in experiment [3] it was more than 10 µM; at Melanocortin receptor 3 it was more than 30 µM; on Vasopressin V2 receptor, more than 30 µM; at Thromboxane A2 receptor, more than 30 µM. Also, the AC50 was more than 10 µM in [4] and more than 30 µM on Adenosine receptor A3.

Take `CN1C(=O)COc2c(C(=O)NC3CN4CCC3CC4)cc(Cl)cc21` (centres undefined) [AZASETRON]: the AC50 (in [1]; in [2]; in experiment [3]; at Melanocortin receptor 3; at Vasopressin V2 receptor; on Thromboxane A2 receptor) was more than 30 µM each time. In addition, the AC50 at Progesterone receptor and on Adenosine receptor A3 was more than 30 µM each time.

Turning to `CC(C)(Oc1ccc(C2CC2(Cl)Cl)cc1)C(=O)O` (centres undefined) [CIPROFIBRATE], the concentration at half-maximal activity (AC50) (in experiment [1]; in [2]; in experiment [3]; at Melanocortin receptor 3; on Vasopressin V2 receptor; on Thromboxane A2 receptor) was more than 30 µM throughout. In addition, the concentration at half-maximal activity (AC50) on Progesterone receptor and on Adenosine receptor A3 was more than 30 µM in each case.

Turning to `CC(Cc1ccccc1)NCCC(c1ccccc1)c1ccccc1` (centres undefined) [PRENYLAMINE], the AC50 is 3 µM in experiment [1]; 3.5 µM in experiment [2]; more than 30 µM at Melanocortin receptor 3; more than 30 µM on Vasopressin V2 receptor; more than 30 µM on Thromboxane A2 receptor; 1.7 µM in [4]. Besides, the AC50 on Adenosine receptor A3 is 15.6 µM; in [5], more than 30 µM.
